{"source": "paper PMC2365111", "about": "“Cytotoxicity of Poly(Phenolic)Sulfonates and Their Sodium Salts in L1210 Lymphoid Leukemia Cells” (Metal-Based Drugs, 1998)", "key": {"[1]": {"system": "Thymidine diphosphate kinase", "assay": "TDP kinase activity, L1210", "type": "biochemical, mouse", "conditions": "60 min, N=6", "description": "(§1) CYTOTOXlCITY OF POLY(PHENOLIC)SULFONATES AND THEIR SODIUM SALTS IN L1210 LYMPHOID LEUKEMIA CELLS Fei Wang, Amy E. Warren, Cheryl R. Barnes and Iris H. Hall* Division of Medicinal Chemistry and Natural Products University of North Carolina Chapel Hill, N.C. […] Because ofthese properties it was surmised that these poly(phenolic)sulfonated compounds may have antineoplastic activity. METHODS Source of Compounds Test compounds were supplied by GeneLabs, Inc. [Redwood City, CA [Table 1]. Radioisotopes were obtained from New England Nuclear [Dupont, Boston, MA]. Substrates and co-factors were purchased om Sigma Chemical Co., [St Louis, MO]. Pentosan sulfate and other antineoplastic standards were obtained from Sigma Chemical Co. Tumor lines were obtained from American Type Culture Collection [Rockville, MD]. 147 Vol. 5, No. 3, 1998 Cytotoxicity ofSodium Poly(Phenolic)Sulfonates in L1210 Lymphoid Leukemia Cells Table 1 Structures of Poly(phenolic)sulfonate Compounds O2R\" n Compound R' R\" n MW # G1-2041 H OH 8 1489.46 G1-2029 H OH 6 1117.09 G1-2030 H OH 4 744.73 GI-2021 CH3 ONa 8 1777.5 G1-2057 CH3 ONa 4 888.75 GI-2158 CH3 ONa 6 1333.13 GI-2063 OCH3 ONa 8 2001.65 G1-2042 OAc ONa 8 2017.73 Cytotoxicity Poly(phenolic)sulfonates were tested for cytotoxic activity by homogenizing drug in 0.05% Tween 80/H20 to give a mg/ml stock concentration. These solutions were sterilized by passing them through an acrodisc ([…]). The following cell lines were maintained by literature techniques: murine L1210 lymphoid leukemia, P-388 lymphocytic leukemia, rat UMR 106 osteosarcoma, human Tmolt3 acute lymphoblastic T cell leukemia, HUT-8 lymphoma, HeLa-S suspended cervical carcinoma, HeLa solid cervical carcinoma, KB epidermoid nasopharynx, A431 epidermoid carcinoma, colorectal adenocarcinoma SW480, HCT-8 ileocecal adenocarcinoma, lung bronchogenic MB-9812, A549 lung carcinoma, and glioma HS683. Geran et al.'s protocol was used to assess the cytotoxicity of the compounds and standards in each cell line. Cell numbers were determined by the trypan blue exclusion technique. Solid tumor cytotoxicity was determined by Leibovitz et al. 's method utilizing crystal violeeOH and read at 562 nm (Molecular Devices). Values for cytotoxicity were expressed as EDs0 g/ml, i.e. the concentration ofthe compound inhibiting 50% ofcell growth. A value of less than 4 µg/ml was required for significant activity ofgrowth inhibition. Incorporation Studies Incorporation of labeled precursors into 3H-DNA, 3H -RNA and 3H -protein for 10 L1210 cells was obtained. The concentration response for inhibition of DNA, RNA and protein synthesis of the compounds at 25, 50 and 100 l.tM was determined for 60 min incubations. Incorporation of 14C -glycine (53.0 mCi/mmol) into purines was obtained by the method of Cadman et al.[12]. Incorporation of 4C- formate (53.0 mCi/mmol) into pyrimidines was determined by the method of Christopherson et al.[13]. Enzyme Assays Inhibition of various enzyme activities was performed by first preparing the appropriate L1210 cell homogenates or subcellular fractions, then adding the drug to be tested during the enzyme assay. For the concentration response studies, inhibition of enzyme activity was determined at 25, 50 and 100 l.tM of compounds G1-2021, G1-2029, GI-2041 and G1-2063 after 60 min incubations. DNA polymerase Ot activity was determined in cytoplasmic extracts isolated by Eichler et aL's method. The DNA polymerase assay was described by Sedwick et al.[15] using 3H-TTP. Messenger-, ribosomal- and transfer-RNA polymerase enzymes were isolated with different concentrations of ammonium sulfate; individual RNA polymerase activities were determined using 3H -UTP 16,17]. Ribonucleoside reductase activity was measured using 4C -CDP with dithioerythritol. The deoxyribonucleotides 4C -dCDP were separated from the ribonucleotides by TLC on PEI plates. […]"}, "IMP dehydrogenase": {"system": "IMP dehydrogenase", "assay": "IMP dehydrogenase activity, L1210", "type": "biochemical, mouse", "conditions": "25 μM, 60 min, N=6", "description": "as §1, with “Enzyme Assays Inhibition of various enzyme activities was performed by first preparing the appropriate L1210 cell homogenates or subcellular fractions, then adding the drug to be tested during the enzyme assay. For the concentration response studies, inhibition of enzyme activity was determined at 25, 50 and 100 l.tM of compounds G1-2021, G1-2029, GI-2041 and G1-2063 after 60 min incubations.” left out, “The DNA polymerase assay was described by Sedwick et al.[15] using 3H-TTP.” left out, “dithioerythritol.” for “dithioerythritol. The deoxyribonucleotides 4C -dCDP were separated from the ribonucleotides by TLC on PEI plates.”"}, "L1210 d[NTP] pool levels": {"system": "L1210 d[NTP] pool levels", "assay": "Deoxyribonucleoside triphosphate pool levels", "type": "cell-based, mouse", "conditions": "100 μM, 60 min, N=6", "description": "as §1"}, "Thymidylate synthetase": {"molecular_target": "T1, Thymidylate synthetase (Mus musculus, UniProt P07607)", "T1 construct": "preparing the appropriate L1210 cell homogenates or subcellular fractions; endogenous in cells; host or cells: L1210 murine lymphoid leukemia cells, homogenate or subcellular fraction", "T1 sequence (P07607 whole entry)": "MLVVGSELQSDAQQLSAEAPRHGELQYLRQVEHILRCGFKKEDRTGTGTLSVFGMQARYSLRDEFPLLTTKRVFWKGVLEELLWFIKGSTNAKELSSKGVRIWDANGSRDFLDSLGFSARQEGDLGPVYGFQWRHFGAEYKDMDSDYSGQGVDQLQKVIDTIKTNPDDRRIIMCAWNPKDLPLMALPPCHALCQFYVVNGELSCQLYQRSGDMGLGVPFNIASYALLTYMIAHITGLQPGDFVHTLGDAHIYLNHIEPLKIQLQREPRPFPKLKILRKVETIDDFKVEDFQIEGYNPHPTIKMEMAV", "assay": "Thymidylate synthetase activity, L1210", "type": "biochemical", "conditions": "60 min, N=6", "description": "as §1"}, "[2]": {"system": "L1210 de novo pyrimidine synthesis", "assay": "14C-formate incorporation into pyrimidines", "type": "cell-based, mouse", "conditions": "60 min, N=6", "description": "as §1"}, "tRNA polymerase": {"system": "tRNA polymerase", "assay": "Transfer-RNA polymerase activity, L1210", "type": "biochemical, mouse", "conditions": "60 min, N=6", "description": "as §1"}, "L1210 DNA synthesis": {"system": "L1210 DNA synthesis", "assay": "Incorporation of labeled precursor into DNA", "type": "cell-based, mouse", "conditions": "60 min, N=6", "description": "as §1"}, "[3]": {"system": "L1210 de novo purine synthesis", "assay": "14C-glycine incorporation into purines", "type": "cell-based, mouse", "conditions": "60 min, N=6", "description": "as §1"}, "mRNA polymerase": {"molecular_target": "T2, mRNA polymerase (Mus musculus, UniProt P08775)", "T2 construct": "Messenger-, ribosomal- and transfer-RNA polymerase enzymes were isolated with different concentrations of ammonium sulfate; endogenous in cells; host or cells: L1210 murine lymphoid leukemia cells, ammonium sulfate fraction", "assay": "Messenger-RNA polymerase activity, L1210", "type": "biochemical", "conditions": "25 μM, 60 min, N=6", "description": "CYTOTOXlCITY OF POLY(PHENOLIC)SULFONATES AND THEIR SODIUM SALTS IN L1210 LYMPHOID LEUKEMIA CELLS Fei Wang, Amy E. Warren, Cheryl R. Barnes and Iris H. Hall* Division of Medicinal Chemistry and Natural Products University of North Carolina Chapel Hill, N.C. […] Because ofthese properties it was surmised that these poly(phenolic)sulfonated compounds may have antineoplastic activity. METHODS Source of Compounds Test compounds were supplied by GeneLabs, Inc. [Redwood City, CA [Table 1]. Radioisotopes were obtained from New England Nuclear [Dupont, Boston, MA]. Substrates and co-factors were purchased om Sigma Chemical Co., [St Louis, MO]. Pentosan sulfate and other antineoplastic standards were obtained from Sigma Chemical Co. Tumor lines were obtained from American Type Culture Collection [Rockville, MD]. […] Cell numbers were determined by the trypan blue exclusion technique. Solid tumor cytotoxicity was determined by Leibovitz et al. 's method utilizing crystal violeeOH and read at 562 nm (Molecular Devices). Values for cytotoxicity were expressed as EDs0 g/ml, i.e. the concentration ofthe compound inhibiting 50% ofcell growth. […] Incorporation of 4C- formate (53.0 mCi/mmol) into pyrimidines was determined by the method of Christopherson et al.[13]. […] DNA polymerase Ot activity was determined in cytoplasmic extracts isolated by Eichler et aL's method. […] Messenger-, ribosomal- and transfer-RNA polymerase enzymes were isolated with different concentrations of ammonium sulfate; individual RNA polymerase activities were determined using 3H -UTP 16,17]. Ribonucleoside reductase activity was measured using 4C -CDP with dithioerythritol. […]"}, "L1210 RNA synthesis": {"system": "L1210 RNA synthesis", "assay": "Incorporation of labeled precursor into RNA", "type": "cell-based, mouse", "conditions": "60 min, N=6", "description": "as §1, with “Enzyme Assays Inhibition of various enzyme activities was performed by first preparing the appropriate L1210 cell homogenates or subcellular fractions, then adding the drug to be tested during the enzyme assay. For the concentration response studies, inhibition of enzyme activity was determined at 25, 50 and 100 l.tM of compounds G1-2021, G1-2029, GI-2041 and G1-2063 after 60 min incubations.” left out, “The DNA polymerase assay was described by Sedwick et al.[15] using 3H-TTP.” left out, “dithioerythritol.” for “dithioerythritol. The deoxyribonucleotides 4C -dCDP were separated from the ribonucleotides by TLC on PEI plates.”"}, "[4]": {"molecular_target": "T3, Thymidine monophosphate kinase (Mus musculus, UniProt P97930)", "T3 construct": "preparing the appropriate L1210 cell homogenates or subcellular fractions; endogenous in cells; host or cells: L1210 murine lymphoid leukemia cells, homogenate or subcellular fraction", "T3 sequence (P97930 1-212)": "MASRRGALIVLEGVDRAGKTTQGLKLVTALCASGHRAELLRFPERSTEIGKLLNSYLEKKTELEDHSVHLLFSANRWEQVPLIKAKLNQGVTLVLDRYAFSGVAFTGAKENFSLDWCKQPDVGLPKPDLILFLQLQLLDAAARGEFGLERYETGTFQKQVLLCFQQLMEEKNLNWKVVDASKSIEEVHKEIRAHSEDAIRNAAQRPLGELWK", "assay": "TMP kinase activity, L1210", "type": "biochemical", "conditions": "60 min, N=6", "description": "as §1"}}}
{"compound": "COc1c2cc(S(=O)(=O)[O-])cc1Cc1cc(S(=O)(=O)[O-])cc(c1OC)Cc1cc(S(=O)(=O)[O-])cc(c1OC)Cc1cc(S(=O)(=O)[O-])cc(c1OC)Cc1cc(S(=O)(=O)[O-])cc(c1OC)Cc1cc(S(=O)(=O)[O-])cc(c1OC)Cc1cc(S(=O)(=O)[O-])cc(c1OC)Cc1cc(S(=O)(=O)[O-])cc(c1OC)C2.[Na+].[Na+].[Na+].[Na+].[Na+].[Na+].[Na+].[Na+]", "note": "[GI-2021]", "values": [{"measurement": "Thymidine diphosphate kinase", "setting": "[1]; 50 μM", "result": "32+3% of Control"}, {"measurement": "Thymidine diphosphate kinase", "setting": "[1]; 100 μM", "result": "26+3% of Control"}, {"measurement": "IMP dehydrogenase", "setting": "IMP dehydrogenase", "result": "124+4% of Control"}, {"measurement": "d(ATP)", "setting": "L1210 d[NTP] pool levels", "result": "65+ 4% of Control"}, {"measurement": "d(CTP)", "setting": "L1210 d[NTP] pool levels", "result": "67+5% of Control"}, {"measurement": "d(GTP)", "setting": "L1210 d[NTP] pool levels", "result": "79+4% of Control"}, {"measurement": "d(TTP)", "setting": "L1210 d[NTP] pool levels", "result": "88+6% of Control"}, {"measurement": "Thymidylate synthetase", "setting": "Thymidylate synthetase; 25 μM", "result": "97+6% of Control"}, {"measurement": "Thymidylate synthetase", "setting": "Thymidylate synthetase; 50 μM", "result": "88+5% of Control"}, {"measurement": "Thymidylate synthetase", "setting": "Thymidylate synthetase; 100 μM", "result": "82+4% of Control"}, {"measurement": "Pyrimidine de novo synthesis", "setting": "[2]; 25 μM", "result": "98+6% of Control"}, {"measurement": "Pyrimidine de novo synthesis", "setting": "[2]; 100 μM", "result": "88+5% of Control"}, {"measurement": "tRNA polymerase", "setting": "tRNA polymerase; 25 μM", "result": "98+5% of Control"}, {"measurement": "tRNA polymerase", "setting": "tRNA polymerase; 50 μM", "result": "85+5% of Control"}, {"measurement": "tRNA polymerase", "setting": "tRNA polymerase; 100 μM", "result": "76+4% of Control"}, {"measurement": "DNA synthesis", "setting": "L1210 DNA synthesis; 25 μM", "result": "105+6% of Control"}, {"measurement": "DNA synthesis", "setting": "L1210 DNA synthesis; 50 μM", "result": "77+5% of Control"}, {"measurement": "DNA synthesis", "setting": "L1210 DNA synthesis; 100 μM", "result": "39+5% of Control"}, {"measurement": "Purine de novo synthesis", "setting": "[3]; 25 μM", "result": "121+6% of Control"}, {"measurement": "Purine de novo synthesis", "setting": "[3]; 50 μM", "result": "118+4% of Control"}, {"measurement": "Purine de novo synthesis", "setting": "[3]; 100 μM", "result": "74+6% of Control"}, {"measurement": "mRNA polymerase", "setting": "mRNA polymerase", "result": "99+5% of Control"}, {"measurement": "RNA synthesis", "setting": "L1210 RNA synthesis; 25 μM", "result": "109+6% of Control"}, {"measurement": "RNA synthesis", "setting": "L1210 RNA synthesis; 50 μM", "result": "94+6% of Control"}, {"measurement": "RNA synthesis", "setting": "L1210 RNA synthesis; 100 μM", "result": "78+4% of Control"}, {"measurement": "Thymidine monophosphate kinase", "setting": "[4]; 25 μM", "result": "110+6% of Control"}, {"measurement": "Thymidine monophosphate kinase", "setting": "[4]; 100 μM", "result": "32+3% of Control"}]}
